Where two headings read alike, the source gives them in different places.
Assays:
Type in all cases: in vivo
Diabrotica balteata = Diabrotica balteata (corn root worm) artificial diet test; conditions: 120 h, 200 ppm (concentration in well 18 ppm), L2 larvae, larval mortality and growth regulation after 5 days
Method: (§1) Diabrotica balteata (Corn Root Worm): A 24-well microtiter plate (MTP) with artificial diet was treated with test solutions at an application rate of 200 ppm (concentration in well 18 ppm) by pipetting. After drying, the MTPs were infested with L2 larvae (6-10 per well). After an incubation period of 5 days, samples were checked for larval mortality and growth regulation.

Tetranychus urticae = Tetranychus urticae (two-spotted spider mite) bean leaf disc test; conditions: foliar, 192 h, 200 ppm sprayed on bean leaf discs, mixed ages, egg, larval and adult mortality 8 days later
Excerpt: Tetranychus urticae (Two-Spotted Spider Mite): Bean leaf discs on agar in 24-well microtiter plates were sprayed with test solutions at an application rate of 200 ppm. After drying, the leaf discs are infested with mite populations of mixed ages. 8 days later, discs are checked for egg mortality, larval mortality, and adult mortality.

Thrips tabaci = Thrips tabaci (onion thrips) sunflower leaf disc test; conditions: foliar, 168 h, 200 ppm sprayed on sunflower leaf discs, mixed ages, mortality after 7 days
Method: Thrips tabaci (Onion Thrips): Sunflower leaf discs were placed on agar in a 24-well microtiter plate and sprayed with test solutions at an application rate of 200 ppm. After drying, the leaf discs were infested with a thrips population of mixed ages. After an incubation period of 7 days, samples were checked for mortality.

Plutella xylostella = Plutella xylostella (diamond back moth) artificial diet test; conditions: 144 h, 200 ppm (concentration in well 18 ppm), L2 larvae, larval mortality and growth regulation after 6 days
Method: as §1, with “Plutella xylostella (Diamond Back Moth):” for “Diabrotica balteata (Corn Root Worm): A”, “(7-12” for “(6-10”, “6” for “5”

Heliothis virescens = Heliothis virescens (tobacco budworm) egg test on artificial diet; conditions: 96 h, 200 ppm (concentration in well 18 ppm), eggs on artificial diet, egg mortality, larval mortality, growth regulation after 4 days
Method: Heliothis virescens (Tobacco Budworm): Eggs (0-24 h old) were placed in 24-well microtiter plate on artificial diet and treated with test solutions at an application rate of 200 ppm (concentration in well 18 ppm) by pipetting. After an incubation period of 4 days, samples were checked for egg mortality, larval mortality, and growth regulation.

Spodoptera littoralis [1] = assay: Spodoptera littoralis (Egyptian cotton leafworm) cotton leaf disc test; conditions: foliar, 72 h, 200 ppm sprayed on cotton leaf discs, mortality, feeding behavior, growth regulation 3 days after treatment
Method: Spodoptera littoralis (Egyptian Cotton Leafworm): Cotton leaf discs were placed on agar in a 24-well microtiter plate and sprayed with test solutions at an application rate of 200 ppm. After drying, the leaf discs were infested with […]. The samples were checked for mortality, feeding behavior, and growth regulation 3 days after treatment (DAT).

Spodoptera littoralis [2] = assay: Spodoptera littoralis persistence test on sprayed cotton plants (increased safety profile / bio-degradability); conditions: Spodoptera littoralis, 12.5 ppm on cotton plants, 10 L3 larvae, mortality after 6 days incubation
Method: Biological Examples Showing Increased Safety Profile:
Spodoptera littoralis (Egyptian Cotton Leafworm)
Cotton plants in the 5th leaf stage (around 5 weeks old) are treated in an automated turn table spray chamber. Plants are stored in the greenhouse length during the whole test period.
2, 16 and optionally 10 days after treatment 4 leaves from each sample are excised, placed into 14 cm plastic petri dishes on wet filter paper. The infestation of 10 L3-Spodoptera littoralis is made immediately afterwards. After an incubation period of 6 days the samples are checked for mortality.
In the following series of experiments the compounds of the invention are compared with the corresponding isoxazoline analogues from the prior art on Spodoptera littoralis (Egyptian cotton leafworm) performed as described in the method above.

[3] = 48 h, leaves excised 2 days after treatment, read-out: Control after 2 days/%
[4] = 384 h, leaves excised 16 days after treatment, read-out: Control after 16 days/%

Row | Structure (SMILES) | pest or weed control at 200 ppm (Diabrotica balteata) | pest or weed control at 200 ppm (Tetranychus urticae) | pest or weed control at 200 ppm (Thrips tabaci) | pest or weed control at 200 ppm (Plutella xylostella) | pest or weed control at 200 ppm (Heliothis virescens) | pest or weed control at 200 ppm (Spodoptera littoralis [1]) | pest or weed control at 12.5 ppm (Spodoptera littoralis [2]; [3]) | pest or weed control at 12.5 ppm (Spodoptera littoralis [2]; [4])
1 | CO/N=C/NC(=O)c1ccc(C2=NSC(c3cc(Cl)cc(Cl)c3)(C(F)(F)F)C2)cc1C (stereo not drawn) [Compound C1, 4-[5-(3,5-dichlorophenyl)-5-(trifluoromethyl)-4H-isothiazol-3-yl]-N-[(E)-methoxyiminomethyl]-2-methyl-benzamide] | ≥ 80% | ≥ 80% | ≥ 80% | ≥ 80% | ≥ 80% | ≥ 80% | 100% | 5%
2 | CO/N=C/NC(=O)c1ccc(C2=NSC(c3cc(Cl)cc(Cl)c3)(C(F)(F)F)C2)cc1Cl (stereo not drawn) [Compound C3, 2-chloro-4-[5-(3,5-dichlorophenyl)-5-(trifluoromethyl)-4H-isothiazol-3-yl]-N-[(E)-methoxyiminomethyl]benzamide] | ≥ 80% | ≥ 80% | ≥ 80% | ≥ 80% | ≥ 80% | ≥ 80% | 100% | 0%
3 | Cc1cc(C2=NSC(c3cc(Cl)c(Cl)c(Cl)c3)(C(F)(F)F)C2)ccc1C(=O)NCC(=O)NCC(F)(F)F (stereo not drawn) [Compound D1, 2-methyl-N-[2-oxo-2-(2,2,2-trifluoroethylamino)ethyl]-4-[5-(3,4,5-trichlorophenyl)-5-(trifluoromethyl)-4H-isothiazol-3-yl]benzamide] | ≥ 80% | ≥ 80% | ≥ 80% | ≥ 80% | ≥ 80% | ≥ 80% | 100% | 10%

Source: US9078444B2, “Isothiazoline derivatives as insecticidal compounds” (Syngenta Participations AG, priority 2011, dated 2015)
